The source of these data is EP0235942B1, “Alkylenediamine derivatives” (NIPPON CHEMIPHAR CO., LTD., priority 1986, dated 1987).

What is called inhibition is the percentage by which the read-out fell short of the control.

Data set [1] deals with Neuromuscular Junction of Crayfish. Kind of data set: Glutamate blocking effect on neuromuscular junction of crayfish (intracellular recording of the L-glutamate-induced potential). To be noted: for inhibition at 0.5 µM / inhibition at 20 µM: 5 min; for inhibition at 0.5 µM: as Table 1, but concentration of the pretreatment liquid reduced to 5 x 10⁻⁷ M; for inhibition at 20 µM: inhibition ratio of glutamate potential induced by L-glutamate (1 x 10⁻⁴M), pretreated with test solution (2 x 10⁻⁵ M) for 5 min; for glutamate response after washing: treated sample washed with circulating salt solution for 40 min, then glutamate response measured. In kind it is cell-based. How it is done:
(1) Evaluation of glutamate blocking effect was performed according to the methods of Ishida et al [J. Physiol., 298, 301-319(1980)], and Shinozaki et al[Comp. Biochem. Physiol, 70c, 49-58(1981)]. In more detail, the opener muscle of the first walking leg of the crayfish is employed for the examination described below. A neuromusculor sample is fixed in a vessel, and an aqueous salt solution for crayfish [composition: NaCℓ (195 mM), CaCℓ₂ (18mM), KCℓ (5.4 mM), Tris-maleate buffer (pH 7.5, 10 mM), and glucose (11 mM)] was circulated at a constant rate into the vessel. A glass microelectrode filled with 3M KCℓ solution was inserted into the middle portion of the muscle fibre and the change of potential induced by L-glutamate (1 x 10⁻⁴M) was measured intracellularly. The glutamate blocking effect of the compound to be tested was evaluated by determining an inhibition ratio of glutamate potential protreated by the test solution (2 x 10⁻⁵ M) for 5 min.
(2) The glutamate blocking effects of the compound of the present invention as described in Synthesis Example 3 (i.e. 1-[3-[4-methyl-1-(3-methylbutyl)penty]amino]propyl]piperidine) and the known 5-methyl-1-phenyl-2-(3-piperidinopropylamino)hexan-1-ol were evaluated in the same manner as above except that the concentration of the liquid for the pretreatment was reduced from 2 x 10⁻⁵ M to 5 x 10⁻⁷ M. The results are set forth in Table 2.
(§1) (3) The neuromuscular sample which was fixed in the vessel and treated in the above manner was subsequently washed with the salt solution flowing in the vessel under circulation for 40 min. After such washing was complete, the glutamate response was measured on the wahsed neuromuscular sample. […] Accordingly, it was confirmed that the glutamate blocking action of the aninoalcohol derivative was not kept for sufficient period of time. […] The prolongation of the effect of glutamate response shown in using this alkylenediamine compound was also observed on the alkylenediamine derivatives tested in the (1) above, (4) Acute toxicity (LD₅₀, i.v.) was measured on the alkylenediamine drivatives of the invention and the known aminoalcohol derivative.

A short description of data set [2]: Acute toxicity (LD50, i.v.). To be noted: in vivo, iv, read-out: Acute Toxicity (LD₅₀). The protocol:
as §1

The subject of data set [3] is opener muscle of the first walking leg of the crayfish. Conditions: dose of 2 x 10⁻⁴M; glutamic acid (1x10⁻⁴M); cited from earlier work.

For the compound `CC(C)CCC(CCC(C)C)NCCCN1CCCCC1` [Synthesis Example 3, 1-[3-[4-Methyl-1-(3-methylbutyl)pentylamino]propyl]-piperidine], in data set [1], the inhibition at 0.5 µM amounted to 25%, the inhibition at 20 µM worked out at 99% and the “glutamate response after washing” value is listed as “almost no glutamate response”. In addition, in data set [2], the LD50 amounted to 29.5 mg/kg.

Consider `CC(C)CCC(CCCc1ccccc1)NCCCN1CCCCC1` (stereo not drawn) [Synthesis Example 13, 1-[3-[4-Methyl-1-(3-phenylpropyl)pentylamino]propyl]piperidine], for which, in data set [1], the inhibition at 20 µM is 96%.

For `CCC(CC)C(CCC(C)C)NCCCN1CCCCC1` (stereo not drawn) [Synthesis Example 15, 1-[3-[1-(1-Ethylpropyl)-4-methylpentylamino]propyl]piperidine], the inhibition at 20 µM in data set [1] worked out at 94%.

Turning to `CC(C)CCC(CNCCCN1CCCCC1)Cc1ccccc1` (stereo not drawn) [Synthesis Example 12, 1-[3-(2-Benzyl-5-methylhexylamino)propyl]piperidino], the inhibition at 20 µM in data set [1] was 98%.

As to `CC(C)CCCCN(CCCCN1CCCCC1)CCC(C)C` [Synthesis Example 38, 1-[4-[N-(3-Methylbutyl)-N-(5-methylhexyl)amino]butyl]piperidine], in data set [1], the inhibition at 20 µM stood at 96%.

Turning to `COc1ccc([C@@H]2Sc3ccccc3N(CCN(C)C)C(=O)[C@@H]2OC(C)=O)cc1` [Diltiazem], the “inhibition of depolarization induced by glutamic acid” value in data set [3] is “approx. 30%”.

In the case of `CC(C)CCN(CCCc1ccccc1)CCCN1CCCCC1` [Synthesis Example 30, 1-[3-[3-Methyl-N-(3-phenylpropyl)butylamino]propyl]piperidine], the inhibition at 20 µM in data set [1] was determined as 96%.

In the case of `CC(C)CC(=O)OCC(Cc1ccccc1)NCCCN1CCCCC1` (stereo not drawn) [Synthesis Example 9, 3-Phenyl-2-(3-piperidinopropylamino)propyl 3-methylbutanoate], in data set [1], the inhibition at 20 µM was 90%.

With `CC(C)CCC(CCc1ccccc1)NCCCN1CCCCC1` (stereo not drawn) [Synthesis Example 10, 1-[3-[4-Methyl-1-(2-phenylethyl)pentylamino]propyl]piperidine], the inhibition at 20 µM in data set [1] was 99%.

With `CC(C)CCC(NCCCN1CCCCC1)C(O)c1ccccc1` (stereo not drawn) [5-Methyl-1-phenyl-2-(3-piperidinopropylamino)hexan-1-ol, reference compound], in data set [1], the inhibition at 0.5 µM is 6% and the “glutamate response after washing” value is on record as “almost the same level as shown by the sample prior to the treatment”. Further, the LD50 in data set [2] was found to be 13.6 mg/kg.

In the case of `CC(C)CCC(CCC(C)C)NCCCN1CCCC1` [Synthesis Example 20, 1-[3-[4-methyl-1-(3-methylbutyl)pentylamino]propyl]pyrrolidine], the inhibition at 20 µM in data set [1] amounted to 96%.

As to `CC(C)CCN(CCCN1CCCCC1)CCC(C)C` [Synthesis Example 26, 1-[3-[N,N-Bis-(3-methylbutyl)amino]propyl]piperidine], the inhibition at 20 µM in data set [1] came to 91%. Further, the LD50 in data set [2] is 24.8 mg/kg.

For the compound `CC(C)CCC(CCNCCCN1CCCCC1)Cc1ccccc1` (stereo not drawn) [Synthesis Example 11, 1-[3-(3-Benzyl-6-methylheptylamino)propyl]piperidine], the inhibition at 20 µM in data set [1] is 96%.

In the case of `CCCCCCN(CCCN1CCCCC1)CCC(C)C` [Synthesis Example 33, 1-[3-[N-hexyl-N-(3-methylbutyl)amino]propyl]piperidine], the inhibition at 20 µM in data set [1] is 83%.

Regarding `CCCCCCCN(CCCN1CCCCC1)CCC(C)C` [Synthesis Example 34, 1-[3-[N-heptyl-N-(3-methylbutyl)amino]propyl]piperidine], the inhibition at 20 µM in data set [1] worked out at 91%.

Take `CC(C)CCC(Cc1ccccc1)NCCCN1CCCCC1` (stereo not drawn) [Synthesis Example 4, 1-[3-(1-Benzyl-4-methylpentylamino)propyl]piperidine]: the inhibition at 20 µM in data set [1] stood at 99%.

For the compound Caroberine, the “inhibition of depolarization induced by glutamic acid” value in data set [3] is recorded as “approx. 30%”.

`CCCCCC(CCCCC)NCCCN1CCCCC1` [Synthesis Example 2, 1-[3-(1-Pentylhexylamino)propyl]piperidine]: in data set [1], the inhibition at 20 µM amounted to 80%. For the same compound, in data set [2], the LD50 was determined as 23.3 mg/kg.

On to `CC(C)CCCCN(CCCN1CCCCCC1)CCC(C)C` [Synthesis Example 41, 1-[3-[N-(3-Methylbutyl)-N-(5-methylhexyl)amino]propyl]perhydroazepin], for which, in data set [1], the inhibition at 20 µM came to 100%.

Regarding `CCCCCC(CCC(C)C)NCCCN1CCCCC1` (stereo not drawn) [Synthesis Example 18, 1-[3-[1-(3-Methylbutyl)hexylamino]propyl]piperidine], in data set [1], the inhibition at 20 µM worked out at 97%.

In the case of `CC(C)CCOC(CNCCCN1CCCCC1)c1ccccc1` (stereo not drawn) [Synthesis Example 7], the inhibition at 20 µM in data set [1] amounted to 96%.

On to `CC(C)CCN(CCCN1CCCCC1)CCc1ccccc1` [Synthesis Example 29, 1-[3-[3-Methyl-N-(2-phenylethyl)butylamino]propyl]piperidine], for which the inhibition at 20 µM in data set [1] was found to be 80%.

Regarding `c1ccc(OC(CNCCCN2CCCCC2)c2ccccc2)cc1` (stereo not drawn) [Synthesis Example 8, 1-[3-(2-Phenoxy-2-phenylethylamino)propyl]piperidine], the inhibition at 20 µM in data set [1] stood at 94%.

For `CC(C)CCC(CCC(C)(C)C)NCCCN1CCCCC1` (stereo not drawn) [Synthesis Example 19, 1-[3-[4,4-Dimethyl-1-(3-methylbutyl]pentylamino]propyl]piperidine], in data set [1], the inhibition at 20 µM was determined as 88%.

`CC(C)CCC(CNCCCN1CCCCC1)c1ccccc1` (stereo not drawn) [Synthesis Example 1, 1-[3-(5-Methyl-2-phenylhexylamino)propyl]piperidine]: the inhibition at 20 µM in data set [1] came out at 99%.

For the compound `CC(C)CCN(CCCN1CCCCC1)CCOc1ccccc1` [Synthesis Example 28, 1-[3-[3-Methyl-N-(2-phenoxyethyl)butylamino]propyl]piperidine], in data set [1], the inhibition at 20 µM amounted to 72%.
